Where “and” joins values, the source holds several entries; their conditions need not be identical. Equal values may be shown once.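 Following 48 hours of exposure in 96-well plates, responses at five concentrations were used to interpolate endpoints linearly. GI50 is the concentration that inhibits growth by half. TGI: concentration producing complete growth inhibition.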
tested on: K-562 leukemia; experiment: inhibition of tumour cell growth, NCI panel, 48 h

`O=S(=O)(O)SCCNCCCCCC1CCCCC1` was tested. Which TGI did it give?
Its TGI is > 35.8 µM.

Which GI50 does the source give for `Cc1c(Cl)cccc1NC(=O)c1sc2nc3c(cc2c1N)CCCC3` here?
The GI50 was 0.391 µM.

What about the TGI of the same molecule?
Its TGI is > 100 µM.

With `O=C1/C(=C\c2ccccc2)C2OCC=C3CN4CCC56c7ccccc7N1C5C2C3CC46` (stereo not given) as the molecule, how does the GI50 read?
The GI50 was 3.33 µM.

And the TGI?
The TGI was > 100 µM.

Which GI50 does the source give for `COc1ccc2c(c1)/C(=N/OC(C)=O)c1c-2cnc2ccccc12` here?
Its GI50 is 24.4 µM.

What about the TGI of the same molecule?
The TGI was 73.1 µM.

What does the source list for `Cn1cc(-c2nc(N[C@@H]3CCCC[C@@H]3N)c(F)c3c2C(=O)NC3)cn1`?
GI50: 6.83 µM and 6.77 µM; TGI: > 100 µM

Which GI50 does the source give for `O=C(/C=C/c1ccco1)c1ccc(Nc2nc(Nc3ccc(F)cc3)nc(Nc3ccc(F)cc3)n2)cc1` here?
Its GI50 is 10.8 µM.

What about the TGI of the same molecule?
The TGI was 46 µM.

What does the source list for `O=C(NOCCO)c1cc(CN2OCCCC2=O)c(F)c(F)c1Nc1ccc(I)cc1F`?
GI50: 1.01 µM and 1.42 µM; TGI: > 100 µM

Which results are given for `C/C(=N/O)c1ccc(Nc2cc(-n3ccnc3)c3ccccc3n2)cc1`?
GI50: 3.27 µM; TGI: > 100 µM

What does the source list for `O=C(/C=C/c1cccc2ccccc12)Nc1ncc(Cc2ccccc2)s1`?
GI50: 0.397 µM; TGI: > 100 µM

tested on: MCF7 breast; experiment: inhibition of tumour cell growth, NCI panel, 48 h

For `O=S(=O)(O)SCCNCCCCCC1CCCCC1`, which TGI is on record?
Its TGI is 7.32 µM.

How did the GI50 turn out when `Cc1c(Cl)cccc1NC(=O)c1sc2nc3c(cc2c1N)CCCC3` was run?
Its GI50 is 0.274 µM.

And the TGI?
The TGI was > 100 µM.

How did the GI50 turn out when `O=C1/C(=C\c2ccccc2)C2OCC=C3CN4CCC56c7ccccc7N1C5C2C3CC46` (stereo not given) was run?
Its GI50 is 5.2 µM.

And the TGI?
Its TGI is > 100 µM.

For `COc1ccc2c(c1)/C(=N/OC(C)=O)c1c-2cnc2ccccc12`, which GI50 is on record?
Its GI50 is 39.7 µM.

What about the TGI of the same molecule?
The TGI was > 100 µM.

Which results are given for `Cn1cc(-c2nc(N[C@@H]3CCCC[C@@H]3N)c(F)c3c2C(=O)NC3)cn1`?
GI50: 5.81 µM and 6.21 µM; TGI: > 100 µM

For `O=C(/C=C/c1ccco1)c1ccc(Nc2nc(Nc3ccc(F)cc3)nc(Nc3ccc(F)cc3)n2)cc1`, which GI50 is on record?
Its GI50 is 3.74 µM.

What about the TGI of the same molecule?
The TGI was 25.9 µM.

With `O=C(NOCCO)c1cc(CN2OCCCC2=O)c(F)c(F)c1Nc1ccc(I)cc1F` as the molecule, how does the GI50 read?
The GI50 was 28.8 µM and > 10 µM.

And the TGI?
Its TGI is > 100 µM.

Which GI50 does the source give for `C/C(=N/O)c1ccc(Nc2cc(-n3ccnc3)c3ccccc3n2)cc1` here?
Its GI50 is 85.3 µM.

What about the TGI of the same molecule?
The TGI was > 100 µM.

With `O=C(/C=C/c1cccc2ccccc12)Nc1ncc(Cc2ccccc2)s1` as the molecule, how does the GI50 read?
The GI50 was 0.434 µM.

What about the TGI of the same molecule?
Its TGI is > 100 µM.

tested on: OVCAR-8 ovarian; experiment: inhibition of tumour cell growth, NCI panel, 48 h

With `O=S(=O)(O)SCCNCCCCCC1CCCCC1` as the molecule, how does the TGI read?
The TGI was 33.1 µM.

For `Cc1c(Cl)cccc1NC(=O)c1sc2nc3c(cc2c1N)CCCC3`, which GI50 is on record?
Its GI50 is 3.42 µM.

What about the TGI of the same molecule?
Its TGI is > 100 µM.

`O=C1/C(=C\c2ccccc2)C2OCC=C3CN4CCC56c7ccccc7N1C5C2C3CC46` (stereo not given) was tested. Which GI50 did it give?
Its GI50 is 85.8 µM.

What about the TGI of the same molecule?
The TGI was > 100 µM.

Which results are given for `COc1ccc2c(c1)/C(=N/OC(C)=O)c1c-2cnc2ccccc12`?
GI50: 38.4 µM; TGI: > 100 µM

Which GI50 does the source give for `Cn1cc(-c2nc(N[C@@H]3CCCC[C@@H]3N)c(F)c3c2C(=O)NC3)cn1` here?
The GI50 was 10.8 µM and 12.4 µM.

And the TGI?
The TGI was 66.1 µM and > 75.3 µM.

What does the source list for `O=C(/C=C/c1ccco1)c1ccc(Nc2nc(Nc3ccc(F)cc3)nc(Nc3ccc(F)cc3)n2)cc1`?
GI50: 17.4 µM; TGI: 46.1 µM

Which GI50 does the source give for `O=C(NOCCO)c1cc(CN2OCCCC2=O)c(F)c(F)c1Nc1ccc(I)cc1F` here?
The GI50 was 12.6 µM and > 7.77 µM.

And the TGI?
Its TGI is > 100 µM.

With `C/C(=N/O)c1ccc(Nc2cc(-n3ccnc3)c3ccccc3n2)cc1` as the molecule, how does the GI50 read?
Its GI50 is 6.01 µM.

What about the TGI of the same molecule?
Its TGI is 25.5 µM.

How did the GI50 turn out when `O=C(/C=C/c1cccc2ccccc12)Nc1ncc(Cc2ccccc2)s1` was run?
Its GI50 is 1.55 µM.

And the TGI?
Its TGI is > 100 µM.

tested on: HOP-92 NSCLC; experiment: inhibition of tumour cell growth, NCI panel, 48 h

`O=S(=O)(O)SCCNCCCCCC1CCCCC1` was tested. Which TGI did it give?
Its TGI is 39.9 µM.

What does the source list for `Cc1c(Cl)cccc1NC(=O)c1sc2nc3c(cc2c1N)CCCC3`?
GI50: 0.994 µM; TGI: > 100 µM

Which results are given for `O=C1/C(=C\c2ccccc2)C2OCC=C3CN4CCC56c7ccccc7N1C5C2C3CC46` (stereo not given)?
GI50: 6.27 µM; TGI: 86.8 µM

`COc1ccc2c(c1)/C(=N/OC(C)=O)c1c-2cnc2ccccc12` was tested. Which GI50 did it give?
Its GI50 is 18.3 µM.

What about the TGI of the same molecule?
Its TGI is 37.2 µM.

What does the source list for `Cn1cc(-c2nc(N[C@@H]3CCCC[C@@H]3N)c(F)c3c2C(=O)NC3)cn1`?
GI50: 3.62 µM and 4.47 µM; TGI: 23.9 µM and 29.1 µM

How did the GI50 turn out when `O=C(/C=C/c1ccco1)c1ccc(Nc2nc(Nc3ccc(F)cc3)nc(Nc3ccc(F)cc3)n2)cc1` was run?
The GI50 was 4.17 µM.

What about the TGI of the same molecule?
Its TGI is 41.6 µM.

With `O=C(NOCCO)c1cc(CN2OCCCC2=O)c(F)c(F)c1Nc1ccc(I)cc1F` as the molecule, how does the GI50 read?
The GI50 was 0.0223 µM and 0.0177 µM.

What about the TGI of the same molecule?
The TGI was 0.688 µM and 0.436 µM.

How did the GI50 turn out when `C/C(=N/O)c1ccc(Nc2cc(-n3ccnc3)c3ccccc3n2)cc1` was run?
The GI50 was 38.3 µM.

And the TGI?
Its TGI is > 100 µM.

For `O=C(/C=C/c1cccc2ccccc12)Nc1ncc(Cc2ccccc2)s1`, which GI50 is on record?
Its GI50 is 0.371 µM.

And the TGI?
Its TGI is 4.73 µM.

tested on: SR leukemia; experiment: inhibition of tumour cell growth, NCI panel, 48 h

Which TGI does the source give for `O=S(=O)(O)SCCNCCCCCC1CCCCC1` here?
Its TGI is > 33.3 µM.

Which results are given for `Cc1c(Cl)cccc1NC(=O)c1sc2nc3c(cc2c1N)CCCC3`?
GI50: 0.315 µM; TGI: > 100 µM

`O=C1/C(=C\c2ccccc2)C2OCC=C3CN4CCC56c7ccccc7N1C5C2C3CC46` (stereo not given) was tested. Which GI50 did it give?
Its GI50 is 2.65 µM.

What about the TGI of the same molecule?
The TGI was 8.76 µM.

Which GI50 does the source give for `COc1ccc2c(c1)/C(=N/OC(C)=O)c1c-2cnc2ccccc12` here?
The GI50 was 13.8 µM.

And the TGI?
Its TGI is 38 µM.

Which GI50 does the source give for `Cn1cc(-c2nc(N[C@@H]3CCCC[C@@H]3N)c(F)c3c2C(=O)NC3)cn1` here?
Its GI50 is 2.26 µM and 2.92 µM.

What about the TGI of the same molecule?
Its TGI is 31.9 µM and 36 µM.

What does the source list for `O=C(/C=C/c1ccco1)c1ccc(Nc2nc(Nc3ccc(F)cc3)nc(Nc3ccc(F)cc3)n2)cc1`?
GI50: 2.37 µM; TGI: 5.84 µM

How did the GI50 turn out when `O=C(NOCCO)c1cc(CN2OCCCC2=O)c(F)c(F)c1Nc1ccc(I)cc1F` was run?
Its GI50 is 19.9 µM and > 10 µM.

What about the TGI of the same molecule?
Its TGI is > 100 µM.

How did the GI50 turn out when `C/C(=N/O)c1ccc(Nc2cc(-n3ccnc3)c3ccccc3n2)cc1` was run?
Its GI50 is 3.78 µM.

What about the TGI of the same molecule?
The TGI was > 100 µM.

Which results are given for `O=C(/C=C/c1cccc2ccccc12)Nc1ncc(Cc2ccccc2)s1`?
GI50: 0.866 µM; TGI: > 100 µM

Source: PubChem BioAssay (NCI)
